The values that follow come from patent US20260347370A1, “SALT TYPE AND CRYSTAL FORM OF THIENOPYRIMIDINONE DERIVATIVE” (CMS RESEARCH & DEVELOPMENT PTE. LTD., priority 2022, published 2026).

Data set [1] can be described thus: Pharmacokinetic evaluation in male CD-1 mice (IV 0.5 mg/kg, PO 2 mg/kg), plasma LC/MS/MS. It counts as in vivo. Here is the method:
Assay purpose: The pharmacokinetic properties of the compounds of the present disclosure were studied in mice.
Each assay compound was mixed with DMAC respectively, and vortexed for 2 minutes. The solution of the assay compound in DMAC was mixed and vortexed for 2 minutes to prepare a clear solution of 10 mg/mL. 0.0600 mL of 10 mg/mL solution was added to 0.300 mL of Solutol, and the mixture was vortexed for 2 minutes. Then 2.400 mL of normal saline was added, and the mixture was vortexed for 2 minutes to obtain a clear solution of 0.2 mg/mL, which was used for administration in PO group. 0.500 mL of the solution for administration in PO group was vortexed for 2 minutes, and 0.0500 mL of DMAC was added. The mixture was vortexed for 2 minutes, and then 0.0500 mL of solutol was added. The mixture was vortexed for 2 minutes, and finally 0.400 mL of normal saline was added. The mixture was vortexed for two minutes to give a clear solution of 0.1 mg/mL, which was filtered through a microporous membrane to give a solution for administration in injection (IV) group.
Four male CD-1 mice were divided into two groups. The animals in the first group were administered intravenously once at a dose of 0.5 mg/kg, wherein the vehicle was 10% DMAC/10% Solutol/80% normal saline, and the administration volume was 5 mL/kg. The animals in the second group were administered orally 2 mg/kg of the assay compound by oral gavage, wherein the oral vehicle was 10% DMAC/10% Solutol/80% normal saline, and the oral volume was 10 mL/kg. Whole blood was collected at 0.033 (IV injection only), 0.083, 0.25, 0.5, 1, 2, 4 and 12 hours post-dose. The whole blood was centrifuged at 3200 g at 2-8 °C for 10 min to obtain plasma. The concentration of the assay compound in plasma was determined by LC/MS/MS method, and the pharmacokinetic parameters were calculated by Phoenix WinNonlin software.
The parameters have the following meanings: IV: intravenous injection; PO: oral administration; C0: initial plasma concentration; Cmax: maximum drug concentration in the systemic circulation; Tmax: time required to reach Cmax; T1/2: half-life; Vdss: apparent volume of distribution; Cl: clearance rate; AUC0-last: area under the plasma drug concentration-time curve.

Data set [2] is described as follows: Solid stability testing of the crystal form B (influencing factors: high temperature, high humidity, light; accelerated 40 °C/75% RH; long-term 25 °C/60% RH). It counts as physicochemical.
A short description of data set [3]: Hygroscopicity study by dynamic vapor sorption (DVS). It is filed as physicochemical. Conditions: 25 °C/80% RH. Here is the method:
Instrument model: SMS DVS intrinsic plus dynamic vapor sorption instrument. Detailed DVS parameters are as follows: • Temperature: 25 °C; • Protective gas and flow rate: nitrogen, 200 mL/min; • dm/dt=0.002%/min; • RH (%) test gradient: 10% RH; • Minimum dm/dt balance time: 10 min; • Maximum balance time: 180 min; • Range of RH (%) test gradient: 0% to 95%.
The classification of hygroscopicity evaluation is as follows: • Absorbing enough water and forming a liquid: deliquescence; ΔW %≥15%: very hygroscopic; 15%>ΔW %≥2%: hygroscopic; 2%>ΔW %≥0.2%: slightly hygroscopic; ΔW %<0.2%: Not or almost not hygroscopic. ΔW % represents the weight increase of a test sample by moisture absorption at 25±1 °C and 80±2% RH.
The test was performed using SMS DVS intrinsic plus dynamic vapor sorption instrument.

Data set [4] can be described thus: Solid stability testing of the crystal form B (influencing factors: high temperature, high humidity, light; accelerated 40 °C/75% RH; long-term 25 °C/60% RH). It counts as physicochemical. An excerpt: Influencing factor testing: unless otherwise specified, each sample was placed in an open weighing bottle, which was placed in the corresponding storage container to investigate the stability at the time points of 5 and 10 days. The photostability testing complied with the requirements of ICH Q1B: the illuminated sample was exposed to visible light and ultraviolet light; storage conditions: the sample was illuminated at 5000±500 lux (visible light) and 90 μw/cm^2 (UV) for 5 days and 10 days. The total illumination received by the sample after 10 days was not less than 1.2×10^6 Lux·h, and the near-ultraviolet energy was not less than 200 w·h/m^2. The illuminated sample was placed in a clean weighing bottle, and spread out into a single layer without being covered by anything. The weighing bottle was uncovered and placed in an illumination box for illumination. The control sample was packaged in the same way as the illuminated sample, but the weighing bottle was covered with aluminum film. Long-term and accelerated testing: each sample was placed in a double-layer LDPE bag, respectively, and each layer of the LDPE bag was sealed with a buckle. Then, the sample was placed in an aluminum foil bag, which was heat-sealed. The sample was placed for 1, 2 and 3 months in the accelerated testing, and placed for 3 months under the long-term condition. XRPD analysis was performed on all the stability samples to test the changes in the crystal forms.
25 mg of a sample was taken, weighed accurately, and placed in a 10 mL volumetric flask. 6 mL of acetonitrile was added and the sample was dissolved by ultrasound. The mixture was cooled to room temperature, and water was added to the scale marker. The mixture was shaken well, and the sample was dissolved to give a solution with a concentration of approximately 2.5 mg/mL. The liquid phase was used for sample injection analysis. The test results were compared with the initial test results on day 0.
This is another data set of the same source.

The mark [5] stands for this setting: Accelerated (40 °C, 75% relative humidity, uncovered), 1 month.
The mark [6] stands for this setting: Accelerated (40 °C, 75% relative humidity, uncovered), 2 months.
[7] abbreviates: Accelerated (40 °C, 75% relative humidity, uncovered), 3 months.
Setting [8] is: Light-shielding control group, placed with visible light + UV light, wrapped with tin foil.
[9] abbreviates: Long term (25 °C, 60% relative humidity, uncovered), 3 months.
Where [10] appears, read: High humidity (25 °C, 92.5% relative humidity, uncovered), 10 days.
The mark [11] stands for this setting: High temperature (60 °C, uncovered), 10 days.
Setting [12] is: Visible light + UV (ICH conditions), total illumination of visible light reaching 1200000 Lux·h, UV reaching 200 w·h/m^2.

For `O=C(O)c1scc2[nH]c(=O)n(-c3cc4c(cc3F)OCCCOc3ccc(F)c(F)c3CO4)c(=O)c12` [Compound of formula (I)], in data set [1] (IV (0.5 mg/kg)), the AUC0-last came to 48.307 µM·h, the “Cl (clearance rate)” value is 0.332 mL/min/kg, the T1/2 was 5.66 h and the “Vdss (apparent volume of distribution)” value came out at 0.159 L/kg. In addition, the C0 in data set [1] (IV (0.5 mg/kg), read-out: C0 (initial plasma concentration)) came out at 13.5 µM. In data set [1] (PO (2 mg/kg)), the AUC0-last is 142.824 µM·h, the Bioavailability is 95.3%, the Cmax stood at 25.8 µM and the T1/2 amounted to 5.03 h. Moreover, the Tmax in data set [1] (PO (2 mg/kg)) is 0.500 h.

Turning to `O=C(O)c1scc2[nH]c(=O)n(-c3cc4c(cc3F)OCCCOc3ccc(F)c(F)c3CO4)c(=O)c12`, the Crystal form result in data set [2] (0 day (initial)), in data set [2] (setting [5]), in data set [2] (setting [6]), in data set [2] (setting [7]), in data set [2] (setting [8]) and in data set [2] (setting [9]) was “form B” each time. The Crystal form result in data set [4] (setting [10]), in data set [4] (setting [11]) and in data set [4] (setting [12]) was “form B” in each case. Besides, the “Purity (HPLC)” value in data set [2] (setting [5]), in data set [2] (setting [6]), in data set [2] (setting [7]), in data set [2] (setting [8]), in data set [4] (0 day (initial)) and in data set [4] (setting [10]) was 99.4% each time. Moreover, the “Purity (HPLC)” value in data set [4] (setting [11]), in data set [4] (setting [9]) and in data set [4] (setting [12]) was 99.4% each time. The chemical stability entry in data set [2] (conclusion in words, all stability conditions) is “good chemical stability”. For the same compound, the hygroscopicity entry in data set [3] is “slightly hygroscopic (2%>ΔW %≥0.2%)”. Moreover, the ΔW % in data set [3] (DVS) is 0.535%. Moreover, in data set [4] (all stability conditions (high temperature, high humidity, illumination, long-term and accelerated)), the “change of purity and crystalline form” value is listed as “did not change significantly”.

What is called Cmax is the highest concentration seen after dosing. One may read the Tmax as the time at which the peak concentration occurs.
